pIC50: −log10 of the molar value. Bounds are passed on as bounds.

The test concerns the target T1, HCV1b NS5B polymerase delta 21 (Hepatitis C virus genotype 1b, UniProt P26663).
T1 construct: purified HCV1b NS5B polymerase delta 21
The experiment in a line: RNA-Dependent RNA HCV NS5B (Polymerase) Assay and IC50 Determination. The format is biochemical. In outline:
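Purified NS5B Δ21 (0.6 μg) with polyA:U16 template, 10 μM UTP plus α-32P UTP in Tris-HCl pH 7.5, 5 mM MgCl2, 0.5% Triton X-100, 60 min at 23°C with varied compound concentrations. Radiolabelled RNA captured on filters, quantified by phosphorimaging; IC50 from triplicate assays.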

T1 sequence (P26663 2420-2989): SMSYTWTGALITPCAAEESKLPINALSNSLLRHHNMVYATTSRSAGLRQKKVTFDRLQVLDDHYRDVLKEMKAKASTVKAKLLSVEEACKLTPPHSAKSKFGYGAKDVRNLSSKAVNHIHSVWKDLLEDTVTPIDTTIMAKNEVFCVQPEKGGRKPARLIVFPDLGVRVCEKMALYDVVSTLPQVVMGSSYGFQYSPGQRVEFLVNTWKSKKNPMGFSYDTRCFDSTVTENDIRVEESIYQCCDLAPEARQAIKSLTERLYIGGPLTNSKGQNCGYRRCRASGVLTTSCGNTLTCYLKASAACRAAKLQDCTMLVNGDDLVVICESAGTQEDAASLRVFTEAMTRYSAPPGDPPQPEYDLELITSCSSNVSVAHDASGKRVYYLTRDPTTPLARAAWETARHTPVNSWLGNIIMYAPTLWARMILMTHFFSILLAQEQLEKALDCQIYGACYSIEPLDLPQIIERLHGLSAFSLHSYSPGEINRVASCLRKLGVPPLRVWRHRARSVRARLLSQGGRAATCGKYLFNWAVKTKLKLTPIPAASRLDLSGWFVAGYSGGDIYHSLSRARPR

One may read the pIC50 as the IC50 on a negative log10 scale, so that one unit is a factor of ten. A higher pIC50 goes with a small IC50. The compound `CCN1CCC(c2cc(C#CCOC)sc2C(=O)O)=C(C2CCC(C)CC2)C1` (stereo not shown) [Example 034, 3-[1-Ethyl-5-(4-methyl-cyclohexyl)-1,2,3,6-tetrahydro-pyridin-4-yl]-5-(3-methoxy-prop-1-ynyl)-thiophene-2-carboxylic acid] showed a pIC50 of over 5.52.

In turn, `CCN1CCC(c2cc(-c3ccc(NC(=O)c4ccco4)cc3)sc2C(=O)O)=C(C2CCC(C)CC2)C1` (stereo not shown) [Example 054, 3-[1-Ethyl-5-(4-methyl-cyclohexyl)-1,2,3,6-tetrahydro-pyridin-4-yl]-5-{4-[(furan-2-carbonyl)-amino]-phenyl}-thiophene-2-carboxylic acid] had a negative-log IC50 (pIC50) of over 5.52.

As to `CC1CCC(C2=C(c3cc(-c4ccccc4)sc3C(=O)O)CCN(C(=O)c3ccncc3)C2)CC1` (stereo not shown) [Example 094, 3-[5-(4-Methyl-cyclohexyl)-1-(pyridine-4-carbonyl)-1,2,3,6-tetrahydro-pyridin-4-yl]-5-phenyl-thiophene-2-carboxylic acid], the negative logarithm of the IC50 (pIC50) was 5.00 to 5.52.

Turning to `CC1CCC(C2=C(c3cc(-c4ccccc4)sc3C(=O)O)CCN(Cc3cccnc3)C2)CC1` (stereo not shown) [Example 089, 3-[5-(4-Methyl-cyclohexyl)-1-pyridin-3-ylmethyl-1,2,3,6-tetrahydro-pyridin-4-yl]-5-phenyl-thiophene-2-carboxylic acid], the negative logarithm of the IC50 (pIC50) was over 5.52.

Take `CN1CCC(c2cc(C#CC(C)(C)C)sc2C(=O)O)=C([C@H]2CC[C@H](C)CC2)C1` [Example 046, 5-(3,3-Dimethyl-but-1-ynyl)-3-[1-methyl-5-(4-methyl-cyclohexyl)-1,2,3,6-tetrahydro-pyridin-4-yl]-thiophene-2-carboxylic acid]: the pIC50 is over 5.52.

Take `COCCN1CCC(C2CCC(C)CC2)=C(c2cc(C#CC(C)(C)C)sc2C(=O)O)C1` (stereo not shown) [Example 137, 5-(3,3-Dimethyl-but-1-ynyl)-3-[1-(2-methoxy-ethyl)-4-(4-methyl-cyclohexyl)-1,2,5,6-tetrahydro-pyridin-3-yl]-thiophene-2-carboxylic acid]: the pIC50 was under 5.00.

Consider `CC1CCC(C2=C(c3cc(-c4ccccc4)sc3C(=O)O)CCN(Cc3c(Cl)cncc3Cl)C2)CC1` (stereo not shown) [Example 146, 3-[1-(3,5-Dichloro-pyridin-4-ylmethyl)-5-(4-methyl-cyclohexyl)-1,2,3,6-tetrahydro-pyridin-4-yl]-5-phenyl-thiophene-2-carboxylic acid], for which the pIC50 is under 5.00.

Take `CC1CCC(C2=C(c3cc(-c4ccc(NC(=O)c5cscn5)cc4)sc3C(=O)O)CCNC2)CC1` (stereo not shown) [Example 159, 3-[5-(4-Methyl-cyclohexyl)-1,2,3,6-tetrahydro-pyridin-4-yl]-5-{4-[(thiazole-4-carbonyl)-amino]-phenyl}-thiophene-2-carboxylic acid]: the negative logarithm of the IC50 (pIC50) was over 5.52.

On to `CC1CCC(C2=C(c3cc(-c4ccccc4)sc3C(=O)O)CCN(Cc3cn(C)c4ccccc34)C2)CC1` (stereo not shown) [Example 095, 3-[5-(4-Methyl-cyclohexyl)-1-(1-methyl-1H-indol-3-ylmethyl)-1,2,3,6-tetrahydro-pyridin-4-yl]-5-phenyl-thiophene-2-carboxylic acid], for which the negative logarithm of the IC50 (pIC50) is 5.00 to 5.52.

The compound `CC1CCC(C2=C(c3cc(-c4ccc(NC(=O)c5cscn5)cc4F)sc3C(=O)O)CCN(C)C2)CC1` (stereo not shown) [Example 060, 5-{2-Fluoro-4-[(thiazole-4-carbonyl)-amino]-phenyl}-3-[1-methyl-5-(4-methyl-cyclohexyl)-1,2,3,6-tetrahydro-pyridin-4-yl]-thiophene-2-carboxylic acid] showed a negative-log IC50 (pIC50) of over 5.52.

`CCN1CCC(c2cc(-c3ccc(-c4cc5ncccn5n4)cc3)sc2C(=O)O)=C(C2CCC(C)CC2)C1` (stereo not shown) [Example 015, 3-[1-Ethyl-5-(4-methyl-cyclohexyl)-1,2,3,6-tetrahydro-pyridin-4-yl]-5-(4-pyrazolo[1,5-a]pyrimidin-2-yl-phenyl)-thiophene-2-carboxylic acid] gave a pIC50 of over 5.52.

For `CC1CCC(C2=C(c3cc(-c4ccccc4)sc3C(=O)O)CCN(C(=O)c3cnccn3)C2)CC1` (stereo not shown) [Example 045, 3-[5-(4-Methyl-cyclohexyl)-1-(pyrazine-2-carbonyl)-1,2,3,6-tetrahydro-pyridin-4-yl]-5-phenyl-thiophene-2-carboxylic acid], the pIC50 is over 5.52.

Compound `CC1CCC(C2=C(c3cc(-c4ccccc4)sc3C(=O)O)CCN(C(=O)Cn3cnc4ccccc43)C2)CC1` (stereo not shown) [Example 152, 3-[1-(2-Benzoimidazol-1-yl-acetyl)-5-(4-methyl-cyclohexyl)-1,2,3,6-tetrahydro-pyridin-4-yl]-5-phenyl-thiophene-2-carboxylic acid] gave a negative-log IC50 (pIC50) of over 5.52.

`CC1CCC(C2=C(c3cc(-c4ccc(-n5cc6ncccc6n5)cc4)sc3C(=O)O)CCN(C)C2)CC1` (stereo not shown) [Example 165, 3-[1-Methyl-5-(4-methyl-cyclohexyl)-1,2,3,6-tetrahydro-pyridin-4-yl]-5-(4-pyrazolo[4,3-b]pyridin-2-yl-phenyl)-thiophene-2-carboxylic acid] had a pIC50 of over 5.52.

With `CC1CC=C(C2=C(c3cc(-c4ccc(-c5cc6ncccn6n5)cc4)sc3C(=O)O)CCN(C)C2)CC1` (stereo not shown) [Example 070, 3-[1-Methyl-5-(4-methyl-cyclohex-1-enyl)-1,2,3,6-tetrahydro-pyridin-4-yl]-5-(4-pyrazolo[1,5-a]pyrimidin-2-yl-phenyl)-thiophene-2-carboxylic acid], the negative logarithm of the IC50 (pIC50) was over 5.52.

`CC1CCC(C2=C(c3cc(-c4ccccc4)sc3C(=O)O)CCN(C(C)C)C2)CC1` (stereo not shown) [Example 009, 3-[1-Isopropyl-5-(4-methyl-cyclohexyl)-1,2,3,6-tetrahydro-pyridin-4-yl]-5-phenyl-thiophene-2-carboxylic acid] showed a pIC50 of 5.00 to 5.52.

`CC1CCC(C2=C(c3cc(-c4ccccc4)sc3C(=O)O)CCN(C(=O)CCc3ccccc3)C2)CC1` (stereo not shown) [Example 076, 3-[5-(4-Methyl-cyclohexyl)-1-(3-phenyl-propanoyl)-1,2,3,6-tetrahydropyridin-4-yl]-5-phenyl-thiophene-2-carboxylic acid] gave a pIC50 of under 5.00.

`CC1CCC(C2=C(c3cc(-c4ccccc4)sc3C(=O)O)CCN(Cc3ccnc4ccccc34)C2)CC1` (stereo not shown) [Example 148, 3-[5-(4-Methyl-cyclohexyl)-1-quinolin-4-ylmethyl-1,2,3,6-tetrahydro-Pyridin-4-yl]-5-phenyl-thiophene-2-carboxylic acid] gave a pIC50 of under 5.00.

On to `CN1CCC(c2cc(-c3ccc(NC(=O)c4cscn4)cc3)sc2C(=O)O)=C([C@H]2CC[C@H](C)CC2)C1` [Example 047, 3-[1-Methyl-5-(4-methyl-cyclohexyl)-1,2,3,6-tetrahydro-pyridin-4-yl]-5-{4-[(thiazole-4-carbonyl)-amino]-phenyl}-thiophene-2-carboxylic acid], for which the pIC50 was over 5.52.

Compound `CC1CCC(C2=C(c3cc(-c4ccccc4)sc3C(=O)O)CCN(C(=O)OCc3ccccc3)C2)CC1` (stereo not shown) [Example 073] showed a pIC50 of under 5.00.

Take `CC(=O)N1CCC(c2cc(-c3ccccc3)sc2C(=O)O)=C(C2CCC(C)CC2)C1` (stereo not shown) [Example 071, 3-[1-Acetyl-5-(4-methyl-cyclohexyl)-1,2,3,6-tetrahydro-pyridin-4-yl]-5-phenyl-thiophene-2-carboxylic acid]: the negative-log IC50 (pIC50) was over 5.52.

For `CC1CCC(C2=C(c3cc(C#CC(C)(C)C)sc3C(=O)O)CCN(Cc3ccncc3)C2)CC1` (stereo not shown) [Example 133, 5-(3,3-Dimethyl-but-1-ynyl)-3-[5-(4-methyl-cyclohexyl)-1-pyridin-4-ylmethyl-1,2,3,6-tetrahydro-pyridin-4-yl]-thiophene-2-carboxylic acid], the pIC50 was 5.00 to 5.52.

The record behind these values is patent US8771665B2 (Cocrystal Discovery, Inc., priority 2010, dated 2014).
